Source: patent publication US20070142304A1, “Diphenylazetidinone derivatives possessing chloesterol absorption inhibitory activity” (priority 2003, published 2007)

System: 14C-cholesterol absorption
Experiment: In Vivo Testing of Cholesterol Absorption Inhibitors (A)
Settings: 5 μmol/kg by gavage, C57BL/6 female mice, procedure A
Description: In Vivo Testing of Cholesterol Absorption Inhibitors (A)
C57BL/6 female mice were maintained on regular chow diet and housed in individual cages to collect faeces. Mice were fasted for 3 hours and then gavaged with vehicle or compound. Half an hour later the mice were gavaged with radiolabelled cholesterol. Six hours after the ^14C-cholesterol gavage blood samples were taken via the tail and plasma prepared to determine how much cholesterol were absorbed. 24 hours after the gavage of ^14C-cholesterol the mice were bled and plasma were prepared for analysis. Faeces were collected for 24 hours to assess absorption efficiency.

| SMILES | inhibition of 14C-cholesterol absorption [%] |
| --- | --- |
| CC(C)CC(NC(=O)COc1ccc(C2C(CCC(O)c3ccc(F)cc3)C(=O)N2c2ccc(F)cc2)cc1)C(=O)NC(Cc1ccccc1)C(=O)O [Example 3, 1-(4-Fluorophenyl)-3-(R)-[3-(4-fluorophenyl)-3-hydroxypropyl]-4-(S)-{4-[N-((R)-1-{N-[1-(R)-(carboxy)-2-(phenyl)ethyl]carbamoyl}-3-methylbutyl)carbamoylmethoxy]phenyl}azetidin-2-one] | 75 |
| O=C(COc1ccc(C2C(CCC(O)c3ccc(F)cc3)C(=O)N2c2ccc(F)cc2)cc1)NC(Cc1ccccc1)C(=O)NC(CO)C(=O)O [Example 4, 1-(4-Fluorophenyl)-3-(R)-[3-(4-fluorophenyl)-3-hydroxypropyl]-4-(S)-[4-(N-{1-(R)-[N-(1-(S)-carboxy-2-hydroxyethyl)carbamoyl]-2-phenylethyl}carbamoylmethoxy)phenyl]azetidin-2-one] | 58 |
